Legend:
Experiment in all cases: MIC determination by CLSI standard method (broth dilution, Mueller Hinton Broth)
Type in all cases: cell-based
Details in all cases: cation-adjusted Mueller Hinton Broth, inoculum about 5×10^5 CFU/mL, read-out: Minimal inhibitory concentration (MIC)
[1] = system: MRSA (methicillin-resistant Staphylococcus aureus)
Description: (§1) The compounds of the invention were tested for antimicrobial activity.
(§2) Minimal inhibitory concentration (MIC: μg/ml) against different strains of bacteria was determined according to the standard method recommended by CLSI (clinical and laboratory standards institute). Samples were prepared by dissolving a test compound solution into DMSO (1280 μg/mL), followed by two fold dilution with DMSO. The sample was added to a bacteria suspension at the concentration of 5%, and MIC was determined. Mueller Hinton Broth was adjusted for cation concentration and used as a culture media. The inoculation concentration was about 5×10^5 CFU/mL.

[2] = system: PRSP (penicillin resistant Streptococcus pneumoniae)
Description: as §1, §2

[3] = system: VISA (vancomycin-intermediate Staphylococcus aureus)
Description: as §1, §2

[4] = system: VRE (vancomycin resistance enterococcus)
Description: as §1, §2

MIC [1] | MIC [2] | MIC [3] | MIC [4] | SMILES
≤ 1 µg/mL | ≤ 1 µg/mL | ≤ 1 µg/mL | ≤ 1 µg/mL | COC(=S)NC[C@H]1CN(c2ccc(N3CCNN(C(=O)Cn4cc(Cl)cn4)CC3)c(F)c2)C(=O)O1 [Example A91]
≤ 1 µg/mL | ≤ 1 µg/mL | ≤ 1 µg/mL | ≤ 1 µg/mL | CC(=S)NC[C@H]1CN(c2cc(F)c(N3CCON(C(=O)c4ccccc4O)CC3)c(F)c2)C(=O)O1 [Example B38]
